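Where inhibition never reached the appropriate level, the endpoint shown equals the highest concentration tested. Otherwise, values were interpolated linearly from a five-concentration, 48-hour dose response in 96-well plates. TGI marks complete inhibition of growth.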
Tests used:
Test in all cases: NCI tumour cell line growth inhibition, 48 h
SF-539 CNS = tested on: SF-539 CNS
MALME-3M melanoma = tested on: MALME-3M melanoma
IGROV1 ovarian = tested on: IGROV1 ovarian
MCF7 breast = tested on: MCF7 breast
NCI-H460 lung = tested on: NCI-H460 lung
SN12C renal = tested on: SN12C renal
UO-31 renal = tested on: UO-31 renal
SNB-19 CNS = tested on: SNB-19 CNS
HCT-116 colon = tested on: HCT-116 colon
SR leukemia = tested on: SR leukemia
HT29 colon = tested on: HT29 colon
MDA-MB-435 = tested on: MDA-MB-435
SW-620 colon = tested on: SW-620 colon
COLO 205 colon = tested on: COLO 205 colon
RXF 393 renal = tested on: RXF 393 renal
SK-OV-3 ovarian = tested on: SK-OV-3 ovarian
ACHN renal = tested on: ACHN renal
K-562 leukemia = tested on: K-562 leukemia
OVCAR-5 ovarian = tested on: OVCAR-5 ovarian
786-0 renal = tested on: 786-0 renal
DU-145 prostate = tested on: DU-145 prostate
RPMI-8226 leukemia = tested on: RPMI-8226 leukemia
OVCAR-8 ovarian = tested on: OVCAR-8 ovarian
PC-3 prostate = tested on: PC-3 prostate
NCI/ADR-RES ovarian = tested on: NCI/ADR-RES ovarian
NCI-H226 lung = tested on: NCI-H226 lung
T-47D breast = tested on: T-47D breast
KM12 colon = tested on: KM12 colon
U251 CNS = tested on: U251 CNS
MDA-MB-231 breast = tested on: MDA-MB-231 breast
HL-60(TB) leukemia = tested on: HL-60(TB) leukemia
UACC-257 melanoma = tested on: UACC-257 melanoma
SF-268 CNS = tested on: SF-268 CNS
NCI-H23 lung = tested on: NCI-H23 lung
MOLT-4 leukemia = tested on: MOLT-4 leukemia
HS 578T breast = tested on: HS 578T breast
UACC-62 melanoma = tested on: UACC-62 melanoma
MDA-N = tested on: MDA-N
LOX IMVI melanoma = tested on: LOX IMVI melanoma
OVCAR-3 ovarian = tested on: OVCAR-3 ovarian
SK-MEL-28 melanoma = tested on: SK-MEL-28 melanoma
M14 melanoma = tested on: M14 melanoma
HCT-15 colon = tested on: HCT-15 colon
SNB-75 CNS = tested on: SNB-75 CNS
SF-295 CNS = tested on: SF-295 CNS
HOP-62 NSCLC = tested on: HOP-62 NSCLC
TK-10 renal = tested on: TK-10 renal
HCC-2998 colon = tested on: HCC-2998 colon
SK-MEL-2 melanoma = tested on: SK-MEL-2 melanoma
CAKI-1 renal = tested on: CAKI-1 renal
SK-MEL-5 melanoma = tested on: SK-MEL-5 melanoma
CCRF-CEM leukemia = tested on: CCRF-CEM leukemia
EKVX NSCLC = tested on: EKVX NSCLC
OVCAR-4 ovarian = tested on: OVCAR-4 ovarian
A549 NSCLC = tested on: A549 NSCLC
NCI-H522 lung = tested on: NCI-H522 lung
BT-549 breast = tested on: BT-549 breast
HOP-92 NSCLC = tested on: HOP-92 NSCLC

Measured: TGI

O/N=C1/CCCCC1NO (stereo not drawn)
not listed: NCI-H522 lung | BT-549 breast | HOP-92 NSCLC
> 100 µM: all other assays above

Cc1ccc(Oc2cc(C)ccc2P(=O)(O)O)cc1
not listed: MALME-3M melanoma | NCI-H460 lung | SR leukemia | HT29 colon | ACHN renal | OVCAR-5 ovarian | NCI/ADR-RES ovarian | T-47D breast | U251 CNS | OVCAR-4 ovarian
> 100 µM: all other assays above

— PubChem BioAssay (NCI)
